Test results as given in patent publication EP0750903A1, “Deodorant composition” (Coöperatie Cosun U.A., priority 1995, dated 1997).

Experiments:
Test in all cases: plate method, inhibition of growth on TSBA medium
Assay type in all cases: cell-based
Details in all cases: Table C; 1:50 dilution of an overnight culture; ester conc 400 ug/ml
[1] = tested on: Corynebacterium minutissimum ATCC 23348
Experimental: (§1) The tests reproduced below have been carried out on the basis of four strains which occur in the human armpit flora, viz. Micrococcus luteus ATCC 533, Staphylococcus epidermis ATCC 155, Corynebacterium xerosis ATCC 373 and Corynebacterium minutissimum ATCC 23348 (ATCC = American Type Culture Collection, Maryland 20852, USA).
(§2) The Micrococcus luteus strain has been incubated at 30°C and the other three strains at 37°C. All strains have been tested for purity and then frozen in glycerol in liquid nitrogen. In addition, the strains have been kept on plate (TSBA medium; TSBA = trypton soya broth (medium CM 129 of Oxoid Ltd. + 1% agar), and regularly re-inoculated (at least once a week).
(§3) The abovementioned sucrose-fatty acid esters have been used in concentrations of 400-800-1600-3200-6400 mg/l.
(§4) The plate method was made use of as test method. In this method, the medium was prepared in sucrose-fatty acid solutions in the above concentrations. The plate, which was provided with a TSBA medium (see above), was then inoculated with 100 µl of culture and incubated at the desired temperature (see above). In this connection, use was made of overnight cultures in TSB (= trypton soya broth) which have been inoculated in undiluted and diluted form.
(§5) The inhibition obtained in the test method of the growth of the respective strains is shown with the values 0 (no inhibition) and with 1, 2, 3, 4 or 5 plus signs, where + 0 - 20% inhibition ++ 20 - 40% inhibition +++ 40 - 60% inhibition ++++ 60 - 80% inhibition +++++ 80 - 100% inhibition.
(§6) A blank determination without sucrose-fatty acid solution on TSBA was used as a control (pos. cont. TSBA; see Tables A and B in Examples I and II).

[2] = tested on: Corynebacterium xerosis ATCC 373
Experimental: as §1, §2, §3, §4, §5, §6

[3] = tested on: Micrococcus luteus ATCC 533
Experimental: as §1, §2, §3, §4, §5, §6

[4] = tested on: Staphylococcus epidermis ATCC 155
Experimental: as §1, §2, §3, §4, §5, §6

Row | Substance | inhibition of the growth, C.minutissimum [1] | inhibition of the growth, C.xerosis [2] | inhibition of the growth, M.luteus [3] | inhibition of the growth, S.epidermis [4]
1 | lactitol stearate | +++++ (+++++ 80 - 100% inhibition) | +++++ (+++++ 80 - 100% inhibition) | +++++ (+++++ 80 - 100% inhibition) | 0 (0 (no inhibition))
2 | sorbitol stearate | +++++ (+++++ 80 - 100% inhibition) | 0 (0 (no inhibition)) | 0 (0 (no inhibition)) | 0 (0 (no inhibition))
3 | sucrose behenate | +++++ (+++++ 80 - 100% inhibition) | +++ (+++ 40 - 60% inhibition) | 0 (0 (no inhibition)) | 0 (0 (no inhibition))
4 | sucrose hydroxystearate | +++++ (+++++ 80 - 100% inhibition) | +++++ (+++++ 80 - 100% inhibition) | +++ (+++ 40 - 60% inhibition) | 0 (0 (no inhibition))
5 | sucrose isostearate | +++++ (+++++ 80 - 100% inhibition) | +++++ (+++++ 80 - 100% inhibition) | + (+ 0 - 20% inhibition) | 0 (0 (no inhibition))
6 | sucrose oleate | +++++ (+++++ 80 - 100% inhibition) | +++++ (+++++ 80 - 100% inhibition) | +++ (+++ 40 - 60% inhibition) | 0 (0 (no inhibition))
